Read-outs that look alike come from different tables or passages of the source.
Key:
[1] = target: GSK3b (GST-full length GSK3b) (Homo sapiens (Human), UniProt P49841); test: GSK3b TR-FRET kinase assay; format: biochemical
Method in brief: (§1)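 Compound preincubated 30 min, then 1 nM GST-full-length GSK3α or GSK3b run 100 min at ambient temperature with 200 nM biotinylated, S645-prephosphorylated glycogen synthase 631-650 peptide in Tris pH 7.5, MgCl2, DTT, BSA, 1% DMSO. ATP 4 μM (α) or 2 μM (β), or 1 mM. EDTA-quenched; Tb-anti-pSer641/streptavidin-d2 TR-FRET 665/615 ratio gave IC50.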

[2] = target: GSK3α (GST-full length GSK3α) (Homo sapiens (Human), UniProt P49840); test: GSK3α TR-FRET kinase assay; format: biochemical
Method in brief: as §1

[3] = 1 nM GSK3b, 2 μM ATP, 30 minute preincubation, Table 16, read-out: GSK3-B TR-FRET BIOCHEMICAL (TR-FRET), IC50
[4] = read-out: GSK3-B (TR-FRET 1 mM ATP), GMean, IC50, 1 mM ATP, geometric mean
[5] = 1 nM GSK3α, 4 μM ATP, 30 minute preincubation, Table 16, read-out: GSK3-A TR-FRET BIOCHEMICAL (TR-FRET), IC50
[6] = read-out: GSK3-A (TR-FRET 1 mM ATP), GMean, IC50, 1 mM ATP, geometric mean
[7] = 1 nM GSK3b, 2 μM ATP, 30 minute preincubation, read-out: GSK3-B TR-FRET BIOCHEMICAL (TR-FRET), IC50
[8] = 1 nM GSK3α, 4 μM ATP, 30 minute preincubation, read-out: GSK3-A TR-FRET BIOCHEMICAL (TR-FRET), IC50
[9] = 1 nM GSK3b, 2 μM ATP, 30 minute preincubation, Table 16, read-out: GSK3-B TR-FRET BIOCHEMICAL (TR-FRET)
[10] = 1 nM GSK3α, 4 μM ATP, 30 minute preincubation, Table 16, read-out: GSK3-A TR-FRET BIOCHEMICAL (TR-FRET)
[11] = GSK3-B (TR-FRET 1 mM ATP), GMean, IC50, 1 mM ATP, geometric mean
[12] = GSK3-A (TR-FRET 1 mM ATP), GMean, IC50, 1 mM ATP, geometric mean

Sequence of GSK3b (GST-full length GSK3b) (P49841 whole entry): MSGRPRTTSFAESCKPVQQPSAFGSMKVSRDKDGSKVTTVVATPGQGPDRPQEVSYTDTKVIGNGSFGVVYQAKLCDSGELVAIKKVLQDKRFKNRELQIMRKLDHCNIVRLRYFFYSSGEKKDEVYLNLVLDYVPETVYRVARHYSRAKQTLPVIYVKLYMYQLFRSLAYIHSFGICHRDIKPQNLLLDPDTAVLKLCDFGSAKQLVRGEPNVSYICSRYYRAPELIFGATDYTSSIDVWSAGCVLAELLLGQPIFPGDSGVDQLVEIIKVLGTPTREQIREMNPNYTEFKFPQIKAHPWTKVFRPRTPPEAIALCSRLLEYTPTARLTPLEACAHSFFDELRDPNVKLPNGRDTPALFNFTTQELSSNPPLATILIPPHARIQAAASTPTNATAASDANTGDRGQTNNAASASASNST
Sequence of GSK3α (GST-full length GSK3α) (P49840 whole entry): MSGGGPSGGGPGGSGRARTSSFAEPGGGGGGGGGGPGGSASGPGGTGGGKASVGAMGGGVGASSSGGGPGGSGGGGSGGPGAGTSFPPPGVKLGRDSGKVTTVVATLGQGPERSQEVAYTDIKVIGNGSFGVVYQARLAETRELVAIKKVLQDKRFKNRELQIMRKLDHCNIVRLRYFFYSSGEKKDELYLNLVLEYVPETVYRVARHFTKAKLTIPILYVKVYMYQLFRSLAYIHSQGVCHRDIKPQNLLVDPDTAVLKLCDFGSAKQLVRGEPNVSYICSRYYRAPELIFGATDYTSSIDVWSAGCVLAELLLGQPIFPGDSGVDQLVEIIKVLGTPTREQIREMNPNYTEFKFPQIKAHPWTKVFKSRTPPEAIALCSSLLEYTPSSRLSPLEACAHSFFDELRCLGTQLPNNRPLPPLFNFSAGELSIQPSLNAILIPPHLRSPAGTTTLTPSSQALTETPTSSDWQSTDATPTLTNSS

Compound | IC50 [1, 3] | IC50 [2, 5] | further results
CC[C@]1(c2cccc(-c3ccncc3C)c2)C2=C(CC(C)(C)CC2=O)Nc2n[nH]cc21 [Compound 913047] | ≤ 0.1 µM | ≤ 0.1 µM | IC50 [1, 4]: 0.1 to 1 µM; IC50 [2, 6]: ≤ 0.1 µM
CC[C@]1(c2cccc(-c3cc(C)ncc3C)c2)C2=C(CC(C)(C)CC2=O)Nc2n[nH]c(C)c21 [Compound 913050] | ≤ 0.1 µM | ≤ 0.1 µM | IC50 [1, 4]: 0.1 to 1 µM; IC50 [2, 6]: ≤ 0.1 µM
CCC1(c2cccc(-c3ccnc(C)c3)c2)C2=C(CC(C)(C)CC2=O)Nc2n[nH]c(C)c21 (stereo not drawn) [Compound 913051] | > 5 µM | 0.1 to 1 µM | 
CCC1(c2cccc(-c3ccncc3F)c2)C2=C(CC(C)(C)CC2=O)Nc2n[nH]c(C)c21 (stereo not drawn) [Compound 913052] | ≤ 0.1 µM | ≤ 0.1 µM | IC50 [1, 4]: 0.1 to 1 µM; IC50 [2, 6]: ≤ 0.1 µM
CC1(C)CC(=O)C2=C(C1)Nc1n[nH]cc1C21CCC2(CCC(=O)N2)CC1 (stereo not drawn) [Compound 913056] |  |  | IC50 [1, 7]: 1 to 5 µM; IC50 [2, 8]: 0.1 to 1 µM
CC(=O)N1CC2(C1)CC1(CO2)C2=C(CC(C)(C)CC2=O)Nc2n[nH]cc21 (stereo not drawn) [Compound 913058] |  |  | IC50 [1, 7]: ≤ 0.1 µM; IC50 [1, 4]: 0.1 to 1 µM; IC50 [2, 8]: ≤ 0.1 µM; IC50 [2, 6]: ≤ 0.1 µM
CCC1(c2cccc(N(C)c3cccc(OC)n3)c2)C2=C(CC(C)(C)CC2=O)Nc2n[nH]cc21 (stereo not drawn) [Compound 913121] | 0.1 to 1 µM | ≤ 0.1 µM | 
CCC1(c2cccc(N(C)c3cccc(C(F)(F)F)n3)c2)C2=C(CC(C)(C)CC2=O)Nc2n[nH]cc21 (stereo not drawn) [Compound 913122] | 0.1 to 1 µM | 0.1 to 1 µM | 
CCC1(c2cccc(S(=O)(=O)c3ccccc3)c2)C2=C(CC(C)(C)CC2=O)Nc2n[nH]cc21 (stereo not drawn) [Compound 913123] | ≤ 0.1 µM | ≤ 0.1 µM | IC50 [1, 4]: 0.1 to 1 µM; IC50 [2, 6]: ≤ 0.1 µM
CC1(C)CC(=O)C2=C(C1)Nc1n[nH]cc1C21CCCSCC1 (stereo not drawn) [Compound 913126] |  |  | IC50 [1, 9]: 0.1 to 1 µM; IC50 [2, 10]: ≤ 0.1 µM
CC(C)S(=O)(=O)N1CCC2(CC1)C1=C(CC(C)(C)CC1=O)Nc1n[nH]cc12 [Compound 913129] | ≤ 0.1 µM | ≤ 0.1 µM | IC50 [1, 11]: 0.1 to 1 µM; IC50 [2, 12]: ≤ 0.1 µM
CCC1(c2cccc(S(=O)(=O)C(C)C)c2)C2=C(CC(C)(C)CC2=O)Nc2n[nH]cc21 (stereo not drawn) [Compound 913134] | 1 to 5 µM | 0.1 to 1 µM | 
Cc1cccc2c1CC[C@@]21C2=C(CC(C)(C)CC2=O)Nc2n[nH]cc21 [Compound 913137] | > 5 µM | > 5 µM | 
CC1(C)CC(=O)C2=C(C1)Nc1n[nH]cc1[C@]21C[C@@]2(CCN(CC(F)F)C2)C1 [Compound 913139] |  |  | IC50 [1, 7]: 0.1 to 1 µM; IC50 [2, 8]: 0.1 to 1 µM
CCC1(c2cccc(N3CCC3(C)C)c2)C2=C(CC(C)(C)CC2=O)Nc2n[nH]cc21 (stereo not drawn) [Compound 913141] | 1 to 5 µM | 0.1 to 1 µM | 
CCC1(c2cccc(C(F)(F)F)c2)C2=C(CNC2=O)Nc2n[nH]cc21 (stereo not drawn) [Compound 913156] |  |  | IC50 [1, 9]: > 5 µM; IC50 [2, 10]: 0.1 to 1 µM
CCC1(c2cccc(C(C)(C)F)c2)C2=C(CCN(C)C2=O)Nc2n[nH]cc21 (stereo not drawn) [Compound 913178] |  |  | IC50 [1, 7]: 1 to 5 µM; IC50 [2, 8]: 0.1 to 1 µM
CC1(C)CC(=O)C2=C(C1)Nc1n[nH]cc1[C@]21CO[C@H](C2CC2)C1 [Compound 913184] | 1 to 5 µM | 0.1 to 1 µM | 
CCC1(c2cccc(C(F)(F)F)c2)C2=C(Nc3n[nH]cc31)C(C)(C)N(C)C2=O (stereo not drawn) [Compound 913198] |  |  | IC50 [1, 9]: 0.1 to 1 µM; IC50 [2, 10]: ≤ 0.1 µM

Compound | IC50 [1, 3] | IC50 [2, 5] | further results
CC[C@@H]1C[C@@]2(CO1)C1=C(CC(C)(C)CC1=O)Nc1n[nH]cc12 [Compound 913213] |  |  | IC50 [1, 9]: 1 to 5 µM; IC50 [2, 10]: 0.1 to 1 µM
CC[C@H]1C[C@@]2(CO1)C1=C(CC(C)(C)CC1=O)Nc1n[nH]cc12 [Compound 913214] |  |  | IC50 [1, 9]: 1 to 5 µM; IC50 [2, 10]: 0.1 to 1 µM
CC[C@@H]1C[C@]2(CO1)C1=C(CC(C)(C)CC1=O)Nc1n[nH]cc12 [Compound 913215] |  |  | IC50 [1, 9]: 1 to 5 µM; IC50 [2, 10]: 0.1 to 1 µM
CC[C@H]1C[C@]2(CO1)C1=C(CC(C)(C)CC1=O)Nc1n[nH]cc12 [Compound 913216] |  |  | IC50 [1, 9]: 0.1 to 1 µM; IC50 [2, 10]: 0.1 to 1 µM
CC[C@]1(c2cccc(-c3cc(C)nc(C)c3)c2)C2=C(CC(C)(C)CC2=O)Nc2n[nH]cc21 [Compound 913223] | > 5 µM | > 5 µM | 
CCC1(c2cccc(Br)c2)C2=C(CC(C)NC2=O)Nc2n[nH]cc21 (stereo not drawn) [Compound 913225] |  |  | IC50 [1, 7]: 1 to 5 µM; IC50 [2, 8]: 0.1 to 1 µM
CC1(C)CC(=O)C2=C(C1)Nc1n[nH]cc1C21CCN(S(=O)(=O)c2ccc3c(c2)CCO3)CC1 [Compound 913251] |  |  | IC50 [1, 9]: ≤ 0.1 µM; IC50 [2, 10]: ≤ 0.1 µM
CCC1(c2cccc(N(C)c3cc(C)nc(C)c3)c2)C2=C(CC(C)(C)CC2=O)Nc2n[nH]cc21 (stereo not drawn) [Compound 913256] | > 5 µM | 1 to 5 µM | 
CCC1(c2cccc(S(=O)(=O)Cc3ccccc3)c2)C2=C(CC(C)(C)CC2=O)Nc2n[nH]cc21 (stereo not drawn) [Compound 913258] | ≤ 0.1 µM | ≤ 0.1 µM | 
CC1(C)CC(=O)C2=C(C1)Nc1n[nH]cc1C21CN(S(=O)(=O)C2CC2)C1 [Compound 913259] |  |  | IC50 [1, 9]: ≤ 0.1 µM; IC50 [2, 10]: ≤ 0.1 µM
Cn1ccc(S(=O)(=O)N2CC3(C2)C2=C(CC(C)(C)CC2=O)Nc2n[nH]cc23)n1 [Compound 913260] |  |  | IC50 [1, 9]: ≤ 0.1 µM; IC50 [2, 10]: ≤ 0.1 µM
COc1ccccc1S(=O)(=O)N1CC2(C1)C1=C(CC(C)(C)CC1=O)Nc1n[nH]cc12 [Compound 913261] |  |  | IC50 [1, 9]: ≤ 0.1 µM; IC50 [2, 10]: ≤ 0.1 µM
CC1(C)CC(=O)C2=C(C1)Nc1n[nH]cc1C21CN(S(=O)(=O)c2ccccn2)C1 [Compound 913262] |  |  | IC50 [1, 9]: ≤ 0.1 µM; IC50 [2, 10]: ≤ 0.1 µM
CC1(C)CC(=O)C2=C(C1)Nc1n[nH]cc1C21CN(S(=O)(=O)c2ccccc2F)C1 [Compound 913263] |  |  | IC50 [1, 9]: 0.1 to 1 µM; IC50 [2, 10]: 0.1 to 1 µM
CN1CC2(C1)C1=C(CC(C)(C)CC1=O)Nc1n[nH]cc12 [Compound 913264] |  |  | IC50 [1, 9]: ≤ 0.1 µM; IC50 [2, 10]: ≤ 0.1 µM
CC1(C)CC(=O)C2=C(C1)Nc1n[nH]cc1C21CN(S(=O)(=O)c2cccnc2)C1 [Compound 913265] | > 5 µM | > 5 µM | 
CCC1(c2cccc(N(c3cccnc3)C3CC3)c2)C2=C(CC(C)(C)CC2=O)Nc2n[nH]cc21 (stereo not drawn) [Compound 913274] | ≤ 0.1 µM | ≤ 0.1 µM | 
CCC1(c2cccc(N(C)C(=O)c3cnn(C)c3)c2)C2=C(CC(C)(C)CC2=O)Nc2n[nH]cc21 (stereo not drawn) [Compound 913311] | ≤ 0.1 µM | ≤ 0.1 µM | IC50 [1, 4]: > 5 µM; IC50 [2, 6]: > 5 µM

Now from value to compound, other results behind:

IC50 [1, 3] | IC50 [2, 5] | Compound | further results
> 5 µM | 0.1 to 1 µM | CCC1(c2cccc(-c3ccnc(C(F)(F)F)c3)c2)C2=C(CC(C)(C)CC2=O)Nc2n[nH]c(C)c21 (stereo not drawn) [Compound 913049] | 
≤ 0.1 µM | ≤ 0.1 µM | CCC1(c2cccc(-c3ccnc(OC)c3)c2)C2=C(CC(C)(C)CC2=O)Nc2n[nH]c(C)c21 (stereo not drawn) [Compound 913053] | 
0.1 to 1 µM | 0.1 to 1 µM | CCC1(c2cc(N(C)C(C)=O)ccc2F)C2=C(CC(C)(C)CC2=O)Nc2n[nH]cc21 (stereo not drawn) [Compound 913124] | 
0.1 to 1 µM | ≤ 0.1 µM | CCC1(c2cccc(N(C)C(=O)CN3CCCC3)c2)C2=C(CC(C)(C)CC2=O)Nc2n[nH]cc21 (stereo not drawn) [Compound 913125] | 
≤ 0.1 µM | ≤ 0.1 µM | CC1(C)CC(=O)C2=C(C1)Nc1n[nH]cc1C21CCN(S(=O)(=O)C2CCOCC2)CC1 [Compound 913127] | IC50 [1, 11]: 0.1 to 1 µM; IC50 [2, 12]: ≤ 0.1 µM
≤ 0.1 µM | ≤ 0.1 µM | CC1(C)CC(=O)C2=C(C1)Nc1n[nH]cc1C21CCN(S(=O)(=O)C2CCCCC2)CC1 [Compound 913128] | IC50 [1, 11]: 0.1 to 1 µM; IC50 [2, 12]: ≤ 0.1 µM
≤ 0.1 µM | ≤ 0.1 µM | CCC1(c2cccc(S(=O)(=O)C(C)C)c2)C2=C(CC(C)(C)CC2=O)Nc2n[nH]cc21 (stereo not drawn) [Compound 913135] | IC50 [1, 4]: 0.1 to 1 µM; IC50 [2, 6]: ≤ 0.1 µM
0.1 to 1 µM | ≤ 0.1 µM | Cc1cccc2c1CC[C@]21C2=C(CC(C)(C)CC2=O)Nc2n[nH]cc21 [Compound 913136] | 
0.1 to 1 µM | ≤ 0.1 µM | CC[C@@]1(c2cccc(N3CCC3(C)C)c2)C2=C(CC(C)(C)CC2=O)Nc2n[nH]cc21 [Compound 913140] | 
0.1 to 1 µM | ≤ 0.1 µM | CC1(C)CC(=O)C2=C(C1)Nc1n[nH]cc1C21CCCc2ccccc21 (stereo not drawn) [Compound 913219] | 
0.1 to 1 µM | 0.1 to 1 µM | CCC1(c2cccc(N(C)c3ccc(OC)nc3)c2)C2=C(CC(C)(C)CC2=O)Nc2n[nH]cc21 (stereo not drawn) [Compound 913252] | 
≤ 0.1 µM | ≤ 0.1 µM | CCC1(c2cccc(NS(C)(=O)=O)c2)C2=C(CC(C)(C)CC2=O)Nc2n[nH]cc21 (stereo not drawn) [Compound 913253] | 
≤ 0.1 µM | ≤ 0.1 µM | CCC1(c2cccc(N(C)c3ccnc(C(F)(F)F)c3)c2)C2=C(CC(C)(C)CC2=O)Nc2n[nH]cc21 (stereo not drawn) [Compound 913254] | 
